From BigSolDB 2.1

Nc1ncnc2c1ncn2[C@@H]1O[C@H](CO)[C@@H](O)[C@H]1O
solubility (mole fraction)
Settings	278.15 K	283.15 K	288.15 K	293.15 K	298.15 K	303.15 K	308.15 K	313.15 K	318.15 K	323.15 K
in DMF	0.00414	0.00502	0.00594	0.00687	0.00784	0.00906	0.00993	0.0108	0.012	0.0127
in DMSO	–	–	–	0.00262	0.00299	0.00348	0.00394	0.00442	0.00488	0.00537
in NMP	0.0321	0.035	0.0376	0.0407	0.0437	0.0467	0.0496	0.0522	0.0554	0.0582
in propylene glycol	0.00352	0.00375	0.004	0.00431	0.00464	0.00497	0.00537	0.0058	0.00623	0.00665
in water	0.00019	0.000237	0.00029	0.000353	0.000426	0.000516	0.000611	0.000731	0.000876	0.00105
